Assay results taken from US9352010B2, “Treatment of HIV-1 infection and AIDS” (The J. David Gladstone Institutes, priority 2011, dated 2016).

Legend:
[1] = tested on: HIV-1 reverse transcription products; assay: Taqman QPCR of HIV-1 reverse transcription products in infected CD4 T-cells; format: cell-based, human; details: 16 hours after infection with NL4-3, versus untreated cells
Procedure: Fresh HLACs were washed once with PBS and resuspended with PBS containing 5 mM EDTA and 2% fetal bovine serum. CD4 T-cells were isolated from HLACs by positive selection on CD4 microbeads (Miltenyi) and cultured overnight in 96-well U-bottomed plates (1×10^6 cells/well) as described above, and AZT was added to the indicated cell samples. Next day, the rest of the drugs were added to the indicated cell samples at concentrations as described above. Cells were chilled on ice for 15 min and DNAse-treated (Ambion, 60 U/ml, 1 hour, 37° C.) NL4-3 or Δvif NL4-3 virions (200 ng/well) were added. After a 1 hour incubation with virions on ice, cells were spinoculated at 1200 g for 2 hours at 4° C., incubated at 37° C. for 2 hours, washed three times with cold PBS, and resuspended in fresh RPMI with the indicated drugs. Eight or 16 hours after spinoculation, cell pellets were frozen at −80° C. Total DNA was purified from each cell pellet with a DNAse kit (Qiagen). Primer and probe sequences used to detect reverse transcription products are provided herein. QPCR reactions were performed in triplicates in TaqMan universal PCR master mix using each primer at 3.75 μM and probe at 2.5 μM. After 15 minutes at 95° C., reactions underwent 50 cycles of 15 sec at 95° C. followed by 1 min at 60° C. in an ABI Prism 7900HT (Applied Biosystems).
Next the status of HIV-1 reverse transcription in tonsillar CD4 T-cells after infection was examined. […] Taqman-based quantitative real-time PCR (QPCR) was used to quantify the synthesis of reverse transcription products in isolated CD4 T-cells from HLAC 16 hours after infection with NL4-3. Specific QPCR primers and probes were designed (Table 1) to monitor sequential steps in reverse transcription including generation of strong-stop DNA, first template exchange (Nef), and DNA strand elongation (Env) (FIG. 10A)

[2] = tested on: ISRE-GFP H35 cells; assay: ISRE-GFP H35 reporter cells; format: cell-based, rat; details: AZT 5 μM, efavirenz 100 nM, raltegravir 30 μM
Procedure: Hepatocyte-derived reporter ISRE-GFP H35 cells were maintained as previously described (King et al., 2007, Lab Chip 7:77-85; Patel et al., 2009, Proc Natl Acad Sci USA 106:12867-12872). For microscopic imaging, ISRE-GFP reporter H35 cells were cultured on 35 mm glass bottom culture dishes (MatTeck) and were treated with AZT (5 μM), Efavirenz (100 nM), or Raltegravir (30 μM) 12 hours before infection. Cells were then infected with 2 μg/ml of replication competent VSV-G pseudotyped NL4-3. After 48 hours incubation at 37° C., cells were fixed in 2% paraformaldehyde at 25° C. for 1 hour, washed with PBS and stained with 10 μg/ml Hoechst 33342 (Invitrogen) and 1 μg/ml 7-AAD (eBioscience) for 15 min at 25° C. Cells were washed 3 times with PBS and were analyzed with an Axio observer Z1 microscope (Zeiss) equipped with an EC Plan NEOFLUAR 10×/0.3 PHM27 objective, filter sets 38HE, 45, and 49, and an Axiocam MRM REV 3.

[3] = tested on: HLAC CD4 T-cells; assay: HLAC cells overlaid on virus-producing 293T-cells, CD4 T-cell depletion; format: cell-based, human; details: 24 hours co-culture
Procedure: HLACs were infected with viruses derived from the indicated HIV proviral clones in the presence of the indicated concentrations of AZT or in the absence of drugs. Six days after infection the amount of p24^gag in the medium was determined by FLAQ assay. The amount of p24^gag in the medium after infection wash (day 0) was defined as 0%. […] Viral incorporation of endogenous A3G was measured by immunoblot analysis of purified NL4-3 and Δvif NL4-3 virions harvested from 1 ml of supernatant from infected HLACs. Doses reflect 1:10 dilutions. […] Resting or activated CFSE-labeled cells were co-cultured with cells infected with WT or Δvif NL4-3 in the presence or absence of the following drugs, AZT (5 μM), AMD3100 (250 nM), the NNRTIs Efavirenz (100 nM), and Nevirapine (1 μM), or the integration inhibitors Raltegravir (30 μM) and 118-D-24 (60 μM). Data are representative of four independent experiments performed with cells from four different donors. (E) A method to assess indirect killing in HLAC with non-infectious HIV-1 clones. Fresh human tonsil is processed into HLAC and cells are cultured in suspension. At the same time 293T-cells are transfected with 1 μg HIV-1 DNA in a 24-well plate. After 12 hours, 293T-cells are washed and overlayed with 3×10^6 HLAC cells in RPMI in the presence of the indicated drugs. Virus-producing 293T-cells directly interact with target overlaying HLAC cells. After 24 hours, the HLAC suspensions are collected from wells and analyzed by flow cytometry. […] HLAC were cultured with the indicated drugs 3 hours before co-culture with 293T-cells. Percentages are normalized to the number of viable CD4 T-cells in HLAC overlaying non-transfected 293T-cells in the presence of AZT, as depicted by (*). Error bars represent standard error of the mean of three experiments performed using cells from three different HLAC donors.

[4] = tested on: caspase-1 and caspase-3; assay: Intracellular caspase activity after spinoculation with NL4-3; format: cell-based, human; details: AZT 5 μM, efavirenz 100 nM, T20 10 μg/ml, 3 days
Procedure: HLACs were subjected to intracellular analysis of caspases activity and cytokine expression 3 days after spinoculation with NL4-3. Intracellular caspase-1, -3, -6, -8, and -9 activities were analyzed with a CaspaLux1 E1D2, Phiphilux G1D2, CaspaLux6 J1D2, CaspaLux 8 L1D2, and CaspaLux 9 M1D2 kits (OncoImmunin), respectively, at 37° C. for 15 min, followed by staining with PE anti-CD4, and APC anti-CD8, at 4° C. for 15 min. For annexin V analysis, cells were stained with APC-conjugated annexin V together with PE anti-CD4, FITC anti-CD8, and with 0.5 μg/ml ethidium monoazide (E-1374, Molecular Probes) for 15 min at 4° C. For intracellular cytokine capture, cells were incubated with 2 μM protein transport inhibitor GolgiStop (BD Biosciences) containing monensin, and 5 μg/ml Brefeldin A (EMD biosciences) at 37° C. for 6 hours before analysis. Cells were then stained with anti-CD4 and anti-CD8 antibodies at 4° C. for 15 min, and fixed in 1% paraformaldehyde at 4° C. for 1 hour. Fixed cells were washed extensively with PBS and were stained in 0.2% saponin buffer (PBS+2% FBS+0.2% saponin) containing PE anti-human TNFα (R&D Systems), FITC anti-human IFNβ (PBL Biomedical laboratories), PE anti-human IL-1β (BD Biosciences), or APC anti-phosphorylated p53 at serine 37 (pS37) at 4° C. for 1 hour.

Molecule	reverse transcription products corresponding to strong-stop DNA [1]	GFP expression and cell death induced by VSV-G pseudotyped HIV-1 virions [2]	loss of HLAC CD4 T-cells over NL4-3-transfected 293T-cells [3]	activation of caspase-1 and caspase-3 in abortively infected CD4 T-cells [4]
Cc1cn([C@H]2C[C@H](N=[N+]=[N-])[C@@H](CO)O2)c(=O)[nH]c1=O [AZT]	similar	induced GFP expression and cell death in the presence or absence of AZT	occurred both in the presence and absence of AZT	–
O=C1Nc2ccc(Cl)cc2[C@@](C#CC2CC2)(C(F)(F)F)O1 [efavirenz]	–	blocked	completely blocked	prevented activation of these caspases
enfuvirtide	–	–	–	prevented activation of these caspases
c1cc(CN2CCCNCCNCCCNCC2)ccc1CN1CCCNCCNCCCNCC1 [AMD3100]	greatly reduced	–	completely blocked	–
